Laboratory results as given in US8475848B2, “Cosmetic composition having anti-radical properties and corresponding application method” (Yves Saint Laurent Parfums, priority 2007, dated 2013).

What was measured:
irradiated skin explants = experiment: Lipid peroxidation test on irradiated skin explants, extracts associated with an insoluble mineral substrate dispersed in carnation oil; type: cell-based; settings: reference (positive control), 5 mg/cm^2 topical, UVA+B
Description: Study of the activity of extracts associated with an insoluble mineral substrate dispersed in carnation oil were carried out using a lipid peroxidation test on irradiated skin explants. This test, which was carried out by applying the products topically, meant that the effects of non-hydrosoluble extracts could be studied in vitro.
Upon receipt, the skin explants were cut and placed in culture.
The test products or the reference (positive control=BHA) were then applied to the surface of the explants in a quantity of 5 mg/cm^2 [milligrams/square centimeter] and the explants were placed in an incubator for 24 h [hours] at 37° C. in the presence of 95% air and 5% CO2.
After incubation and washing, the explants for each series were exposed to irradiation using ultraviolet A and B (UVA+B) radiation. Irradiation was carried out using a SOL500 Sun Simulator lamp with an H2 filter and the exposure conditions were as follows: • UVA+B filter: • UVA: power 11.5 mW/cm^2 [milliwatt/square centimeter] i.e. 678.6 mJ/cm^2/minute [millijoule/square centimeter/minute]; • UVB: power 0.78 mW/cm^2, i.e. 47.1 mJ/cm^2/minute; • Irradiation period: 21 minutes; • i.e. approximately 1 J/cm^2 of UVB and 14 J/cm^2 of UVA.
Three other untreated control explants were kept away from the light. […]
The epidermis was then extracted and the viability of the cells was evaluated using MTT reduction. […]

[1] = H2O2/AmplexRed test on pure extracts (fluorescence); type: biochemical
From the text: (§1) The activity of the pure extracts was studied by means of two biochemical tests: one was based on the reduction of 2,2-diphenyl-1-picrylhydrazyl (DPPH) by the anti-oxidants, and the other was based on the measurement of hydrogen peroxide (H2O2) in the reaction media. H2O2 is trapped by a specific reagent, “AmplexRed”. 2,2-diphenyl-1-picrylhydrazyl (DPPH) is a stable radical compound that is reduced to 1,1-diphenyl-2-picrylhydrazine by anti-oxidants. This reduction is followed by a color change in the DPPH solution (optical density measurement).
AmplexRed is a compound which reacts in a stoichiometric manner with H2O2, producing a fluorescent red compound, resofurin, which can be measured by fluorescence. This test can detect small quantities of H2O2.
(§2) The pure extracts as well as the anti-oxidant references (α-tocopherol and BHA: butylated hydroxyanisole for DPPH, BHA alone for AmplexRed) were dissolved in ethanol. Controls using ethanol alone were produced in order to verify the absence of interference of this solvent.
The products for this test were tested starting from a concentration of 1 μg/ml in a power of ten series. The BHA positive control was tested at concentrations of 50 μM and 500 μM.

[2] = DPPH test on pure extracts (reduction of DPPH, optical density); type: biochemical; settings: for % control (OD) / Activity (DPPH reduction): DPPH test
From the text: as §1, §2
The products for this test were tested starting from a concentration of 1 mg/ml in a power of ten series. The alpha-tocopherol positive control was tested at a concentration of 0.1 μM [micromolar] and the BHA was tested at a concentration of 50 μM.

Row | SMILES | production of lipid peroxides after irradiation (in words) (irradiated skin explants) | % control (fluorescence intensity) ([1]; 50 μM) [%] | Activity (reduction of free H2O2) ([1]; 50 μM) | % control (fluorescence intensity) ([1]; 500 μM) [%] | Activity (reduction of free H2O2) ([1]; 500 μM) | % control (OD) ([2]; 50 μM) [%] | Activity (DPPH reduction) ([2]; 50 μM) | % control (OD) ([2]; 0.1 μM) [%] | Activity (DPPH reduction) ([2]; 0.1 μM) | reduction of DPPH (in words) ([2]; reference, 0.1 μM)
1 | COc1ccc(O)c(C(C)(C)C)c1 [BHA, butylated hydroxyanisole] | greatly reduced the production of lipid peroxides | 38 | ++ (strong reduction more than 50%) | 34 | ++ (strong reduction more than 50%) | 74 | +/− (25% reduction) |  |  | 
2 | Cc1c(C)c2c(c(C)c1O)CC[C@@](C)(CCC[C@H](C)CCC[C@H](C)CCCC(C)C)O2 [Tocopherol, α-tocopherol] |  |  |  |  |  |  |  | 9 | ++ (large reduction more than 50%) | clearly reduced the DPPH
